In patent US20150158891A1, “STABLE PHARMACEUTICAL COMPOSITION FOR OPTIMIZED DELIVERY OF AN HIV ATTACHMENT INHIBITOR” (Bristol-Myers Squibb Company, priority 2008, published 2015):

System: Porcine alkaline phosphatase
Assay: Conversion of prodrug to parent compound by alkaline phosphatase in pH 7.0 Tris-HCl buffer solution
Assay type: in vitro ADME
Method: Phosphate ester prodrug was dissolved in pH 7.0 Tris-HCl buffer to a concentration of 0.72 mg/mL. Porcine alkaline phosphatase (1 mg/mL) was added to an aliquot of the solution. 2.5 hours after enzyme addition a sample was analyzed. The results in the Table below confirm that alkaline phosphatase is active in pH 7.0 Tris-HCl buffer and rapidly hydrolyzes the phosphate ester prodrug to the parent compound.

- Prodrug peak area (2.5 hr sample of solution containing enzyme (1 mg/mL)): 0.0%
- Prodrug peak area (initial sample of prodrug solution (no enzyme), 0.72 mg/mL, percent of total prodrug+parent peak area): 99.9%
SMILES: COc1cnc(-n2cnc(C)n2)c2c1c(C(=O)C(=O)N1CCN(C(=O)c3ccccc3)CC1)cn2COP(=O)(O)O [Prodrug, 1-benzoyl-4-[2-[4-methoxy-7-(3-methyl-1H-1,2,4-triazol-1-yl)-1-[(phosphonooxy)methyl]-1H-pyrrolo[2,3-c]pyridin-3-yl]-1,2-dioxoethyl]-piperazine]
